Assay results: ChEMBL document CHEMBL3734705, “Synthesis and in vitro cytotoxicity of novel C-12 substituted-14-deoxy-andrographolide derivatives as potent anti-cancer agents” (2015)

How the values were obtained:
[1] = Cytotoxicity against human SKOV3 cells assessed as growth level at 10 uM after 48 hrs by SRB assay; format: functional, SK-OV-3
HT-29 [2] = experiment: Cytotoxicity against human HT-29 cells assessed as growth inhibition at 10 uM after 48 hrs by SRB assay; format: functional; settings: HT-29, 48 h, read-out: GI
A498 = experiment: Cytotoxicity against human A498 cells assessed as growth inhibition at 10 uM after 48 hrs by SRB assay; format: functional; settings: A498, 48 h, read-out: GI
SK-MEL-28 = experiment: Cytotoxicity against human SK-MEL-28 cells assessed as growth level at 10 uM after 48 hrs by SRB assay; format: functional
[3] = Cytotoxicity against human SF539 cells assessed as growth inhibition at 10 uM after 48 hrs by SRB assay; format: functional; settings: SF-539, 48 h, read-out: GI
[4] = Cytotoxicity against human LOXIMVI cells assessed as growth inhibition at 10 uM after 48 hrs by SRB assay; format: functional; settings: LOX IMVI, read-out: GI
[5] = Cytotoxicity against human SF268 cells assessed as growth inhibition at 10 uM after 48 hrs by SRB assay; format: functional; settings: SF-268, 48 h, read-out: GI
NCI-H226 = experiment: Cytotoxicity against human NCI-H226 cells assessed as growth inhibition at 10 uM after 48 hrs by SRB assay; format: functional; settings: NCI-H226, 48 h, read-out: GI
786-0 = experiment: Cytotoxicity against human 786-0 cells assessed as growth inhibition at 10 uM after 48 hrs by SRB assay; format: functional; settings: 786-0, 48 h, read-out: GI
[6] = Cytotoxicity against human LOXIMVI cells assessed as growth level at 10 uM after 48 hrs by SRB assay; format: functional, LOX IMVI
CCRF-CEM = experiment: Cytotoxicity against human CCRF-CEM cells assessed as growth inhibition at 10 uM after 48 hrs by SRB assay; format: functional; settings: read-out: GI
[7] = Cytotoxicity against human UACC62 cells assessed as growth inhibition at 10 uM after 48 hrs by SRB assay; format: functional; settings: UACC-62, 48 h, read-out: GI
KM12 = experiment: Cytotoxicity against human KM12 cells assessed as growth inhibition at 10 uM after 48 hrs by SRB assay; format: functional; settings: KM12, 48 h, read-out: GI
[8] = Cytotoxicity against human Caki1 cells assessed as growth inhibition at 10 uM after 48 hrs by SRB assay; format: functional; settings: CAKI-1, 48 h, read-out: GI
NCI-H322M = experiment: Cytotoxicity against human NCI-H322M cells assessed as growth inhibition at 10 uM after 48 hrs by SRB assay; format: functional; settings: read-out: GI
T47D = experiment: Cytotoxicity against human T47D cells assessed as growth level at 10 uM after 48 hrs by SRB assay; format: functional
MDA-MB-231 = experiment: Cytotoxicity against human MDA-MB-231 cells assessed as growth inhibition at 10 uM after 48 hrs by SRB assay; format: functional; settings: MDA-MB-231, 48 h, read-out: GI
[9] = Cytotoxicity against human HCT15 cells assessed as growth inhibition at 10 uM after 48 hrs by SRB assay; format: functional; settings: HCT-15, 48 h, read-out: GI
HT-29 [10] = experiment: Cytotoxicity against human HT-29 cells assessed as growth level at 10 uM after 48 hrs by SRB assay; format: functional
[11] = Cytotoxicity against human SKOV3 cells assessed as growth inhibition at 10 uM after 48 hrs by SRB assay; format: functional; settings: SK-OV-3, 48 h, read-out: GI
A549 = experiment: Cytotoxicity against human A549 cells assessed as growth level at 10 uM after 48 hrs by SRB assay; format: functional
[12] = Cytotoxicity against human RXF393 cells assessed as growth inhibition at 10 uM after 48 hrs by SRB assay; format: functional; settings: RXF 393, 48 h, read-out: GI
[13] = Cytotoxicity against human SF295 cells assessed as growth level at 10 uM after 48 hrs by SRB assay; format: functional, SF-295
EKVX [14] = experiment: Cytotoxicity against human EKVX cells assessed as growth level at 10 uM after 48 hrs by SRB assay; format: functional
MCF7 = experiment: Cytotoxicity against human MCF7 cells assessed as growth level at 10 uM after 48 hrs by SRB assay; format: functional
U-251 = experiment: Cytotoxicity against human U251 cells assessed as growth level at 10 uM after 48 hrs by SRB assay; format: functional
[15] = Cytotoxicity against human HOP62 cells assessed as growth inhibition at 10 uM after 48 hrs by SRB assay; format: functional; settings: HOP-62, 48 h, read-out: GI
[16] = Cytotoxicity against human SNB75 cells assessed as growth level at 10 uM after 48 hrs by SRB assay; format: functional, SNB-75
[17] = Cytotoxicity against human SNB19 cells assessed as growth level at 10 uM after 48 hrs by SRB assay; format: functional, SNB-19
Malme-3M = experiment: Cytotoxicity against human MALME-3M cells assessed as growth level at 10 uM after 48 hrs by SRB assay; format: functional
[18] = Cytotoxicity against human UO31 cells assessed as growth inhibition at 10 uM after 48 hrs by SRB assay; format: functional; settings: UO-31, 48 h, read-out: GI
[19] = Cytotoxicity against human PC3 cells assessed as growth inhibition at 10 uM after 48 hrs by SRB assay; format: functional; settings: PC-3, 48 h, read-out: GI
[20] = Cytotoxicity against human BT549 cells assessed as growth inhibition at 10 uM after 48 hrs by SRB assay; format: functional; settings: BT-549, 48 h, read-out: GI
[21] = Cytotoxicity against human NCI-ADR-RES cells assessed as growth inhibition at 10 uM after 48 hrs by SRB assay; format: functional; settings: read-out: GI
[22] = Cytotoxicity against human RXF393 cells assessed as growth level at 10 uM after 48 hrs by SRB assay; format: functional, RXF 393
[23] = Cytotoxicity against human NCI-ADR-RES cells assessed as growth level at 10 uM after 48 hrs by SRB assay; format: functional
ACHN = experiment: Cytotoxicity against human ACHN cells assessed as growth inhibition at 10 uM after 48 hrs by SRB assay; format: functional; settings: read-out: GI
[24] = Cytotoxicity against human HCT116 cells assessed as growth inhibition at 10 uM after 48 hrs by SRB assay; format: functional; settings: HCT-116, 48 h, read-out: GI
[25] = Cytotoxicity against human SNB19 cells assessed as growth inhibition at 10 uM after 48 hrs by SRB assay; format: functional; settings: SNB-19, 48 h, read-out: GI
[26] = Cytotoxicity against human HCC2998 cells assessed as growth level at 10 uM after 48 hrs by SRB assay; format: functional, HCC 2998
EKVX [27] = experiment: Cytotoxicity against human EKVX cells assessed as growth inhibition at 10 uM after 48 hrs by SRB assay; format: functional; settings: read-out: GI
[28] = Cytotoxicity against human HCT116 cells assessed as growth level at 10 uM after 48 hrs by SRB assay; format: functional, HCT-116
[29] = Cytotoxicity against human RPMI8226 cells assessed as growth level at 10 uM after 48 hrs by SRB assay; format: functional, RPMI-8226
[30] = Cytotoxicity against human HOP92 cells assessed as growth inhibition at 10 uM after 48 hrs by SRB assay; format: functional; settings: HOP-92, 48 h, read-out: GI

C=C1CC[C@@H]2[C@](C)(COC(C)=O)[C@H](OC(C)=O)CC[C@@]2(C)[C@@H]1CC(NCc1cccc(Cl)c1)C1=CCOC1=O (mixture of isomers)
Activity [1]: 73.11%
inhibition of growth at 10 µM (HT-29 [2]): 74.5%
inhibition of growth at 10 µM (A498): 35.2%
Activity (SK-MEL-28): 76.6%
inhibition of growth at 10 µM [3]: 25.9%
inhibition of growth at 10 µM [4]: 87.3%
inhibition of growth at 10 µM [5]: 46.7%
inhibition of growth at 10 µM (NCI-H226): 53.7%
inhibition of growth at 10 µM (786-0): 38%
Activity [6]: 12.71%
inhibition of growth at 10 µM (CCRF-CEM): 57.7%
inhibition of growth at 10 µM [7]: 58.8%
inhibition of growth at 10 µM (KM12): 53.2%
inhibition of growth at 10 µM [8]: 51.7%
inhibition of growth at 10 µM (NCI-H322M): 24.6%
Activity (T47D): 50.73%
inhibition of growth at 10 µM (MDA-MB-231): 35%
inhibition of growth at 10 µM [9]: 62.3%
Activity (HT-29 [10]): 25.54%
inhibition of growth at 10 µM [11]: 26.9%
Activity (A549): 54.21%
inhibition of growth at 10 µM [12]: 49.5%
Activity [13]: 85.92%
Activity (EKVX [14]): 77.89%
Activity (MCF7): 42.95%
Activity (U-251): 30.91%
inhibition of growth at 10 µM [15]: 44%
Activity [16]: 85.86%
Activity [17]: 55.56%
Activity (Malme-3M): 76.11%
inhibition of growth at 10 µM [18]: 53.1%
inhibition of growth at 10 µM [19]: 69.9%
inhibition of growth at 10 µM [20]: 50.3%
inhibition of growth at 10 µM [21]: 39.7%
Activity [22]: 50.51%
Activity [23]: 60.33%
inhibition of growth at 10 µM (ACHN): 58.4%
inhibition of growth at 10 µM [24]: 64.1%
inhibition of growth at 10 µM [25]: 44.4%
Activity [26]: 84.55%
inhibition of growth at 10 µM (EKVX [27]): 22.1%
Activity [28]: 35.94%
Activity [29]: 27.25%
inhibition of growth at 10 µM [30]: 33.7%
